Source: patent US9873717B2, “TRH binding site in human CNS” (THE PROVOST, FELLOWS, FOUNDATION SCHOLARS, AND THE OTHER …, priority 2012, dated 2018)
Entries after “also recorded” stand apart in the source; their conditions may differ. Like-named read-outs stand apart in the source and are kept apart here. Non-standard residues stand in square brackets, D forms with d. Residues, ends and D or L forms follow the SMILES beside them. *: point of attachment. AMC = Cc1cc(=O)oc2cc(N*)ccc12; pGlu = O=C1CC[C@@H](C(=O)O)N1

How the values were obtained:
[1] = target: T1, TRH receptors in human pituitary tissue (Homo sapiens, UniProt P34981); test: Competition binding with [3H][3-Me-His2]TRH, human pituitary tissue membranes
T1 construct: from tissue; host or cells: human pituitary membranes from individual donors
T1 sequence (P34981 1-398): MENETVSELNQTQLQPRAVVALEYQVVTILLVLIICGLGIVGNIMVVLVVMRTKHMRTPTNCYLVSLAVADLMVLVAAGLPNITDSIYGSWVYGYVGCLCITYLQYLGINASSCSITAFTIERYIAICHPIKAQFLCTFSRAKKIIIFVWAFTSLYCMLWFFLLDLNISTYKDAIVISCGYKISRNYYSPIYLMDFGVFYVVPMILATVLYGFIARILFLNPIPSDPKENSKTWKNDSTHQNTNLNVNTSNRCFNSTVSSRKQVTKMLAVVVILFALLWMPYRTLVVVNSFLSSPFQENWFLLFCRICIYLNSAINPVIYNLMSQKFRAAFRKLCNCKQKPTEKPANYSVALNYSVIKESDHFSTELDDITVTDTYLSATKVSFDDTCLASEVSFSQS
Description: To investigate the binding of Glp-Asn-Pro-D-Tyr-D-TrpNH2 in human tissue, radioligand binding studies were carried out employing [^3H][3-Me-His^2]TRH to label TRH receptors in cortical, hippocampal, spinal cord and pituitary tissue membranes from human tissue.
(§1) Competition binding assays using human tissue prepared from individual donors with no history of neurological disease were carried out essentially as previously described (Kelly et al., 2002; Scalabrino et al., 2007; Hogan et al., 2008) by incubating membrane suspension, [^3H][3-Me-His^2]TRH, and increasing concentrations of peptide for 5 h at 4° C. Non-specific binding (NSB) was determined in the presence of 10 μM TRH. Separation of bound and free ligand was achieved by vacuum filtration through GF/C or GF/B filters, followed by washing with 3×5 ml of ice-cold NaCl or Tris-HCl buffer. The radioactivity retained on the filters was measured by liquid scintillation counting.

[2] = target: [^3H][3-Me-His^2]TRH-labelled native TRH receptors in rat cortical membranes; conditions: cited from earlier work
[3] = target: TRH receptors in human CNS tissue (cortical, hippocampal, spinal cord); test: Competition binding with [3H][3-Me-His2]TRH, human CNS tissue membranes; conditions: for IC50: 5 h at 4° C.
Description: as §1, with “Hogan et al., 2008) by incubating membrane suspension, [^3H][3-Me-His^2]TRH, and increasing concentrations of peptide for 5 h at 4° C. Non-specific binding (NSB) was determined in the presence of 10 μM TRH.” left out

[4] = target: [^3H][3-Me-His^2]TRH-labelled native TRH receptors in rat cortical membranes; test: Displacement of [3H][3-Me-His2]TRH, native rat cortical membranes; format: binding; conditions: native rat tissue; N = 3-6
[5] = target: T2, TRHR1 (GH4 pituitary cell line, naturally expresses TRHR1) (Rattus norvegicus, UniProt Q01717); test: Displacement of [3H][3-Me-His2]TRH, GH4 cell membranes; format: binding; conditions: N = 2; read-out: IC50, displacement of [^3H][3-Me-His^2]TRH, GH4 cell membranes
T2 construct: a GH4 pituitary cell line, which naturally expresses TRHR1; endogenous in cells; host or cells: GH4 pituitary cell membranes
T2 sequence (Q01717 1-412): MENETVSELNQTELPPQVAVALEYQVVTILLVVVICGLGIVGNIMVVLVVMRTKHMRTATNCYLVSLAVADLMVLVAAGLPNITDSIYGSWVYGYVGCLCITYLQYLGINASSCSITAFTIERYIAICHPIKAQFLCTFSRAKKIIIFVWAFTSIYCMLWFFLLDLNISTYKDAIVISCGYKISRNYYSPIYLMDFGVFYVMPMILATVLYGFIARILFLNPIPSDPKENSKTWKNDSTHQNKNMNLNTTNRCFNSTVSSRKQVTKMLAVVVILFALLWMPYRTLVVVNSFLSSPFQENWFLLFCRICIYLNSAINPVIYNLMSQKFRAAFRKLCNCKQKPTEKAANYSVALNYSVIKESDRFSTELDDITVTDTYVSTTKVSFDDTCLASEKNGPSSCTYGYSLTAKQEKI

[6] = target: [^3H][3-Me-His^2]TRH-labelled native TRH receptors in rat hippocampal membranes; test: Displacement of [3H][3-Me-His2]TRH, native rat hippocampal membranes; format: binding; conditions: native rat tissue; N = 3-6
TRHR1 [7] = test: Displacement of [3H][3-Me-His2]TRH, membranes from CHO cells transfected with TRHR1; format: binding; conditions: N = 2; read-out: IC50, displacement of [^3H][3-Me-His^2]TRH, membranes from Chinese Hamster Ovary cells transfected with TRHR1
[8] = tested on: [^3H][3-Me-His^2]TRH-labelled native TRH receptors in rat hippocampal membranes; conditions: Scalabrino 2007, Hogan 2008; cited from earlier work
[9] = target: T3, TRH receptors in rat pituitary tissue (Rattus norvegicus, UniProt Q01717); conditions: cited from earlier work
T3 construct: host or cells: rat pituitary tissue
T3 sequence (Q01717 1-412): T2 sequence (Q01717 1-412)

[10] = target: T2, TRHR1 (GH4 pituitary cell line, naturally expresses TRHR1); conditions: Scalabrino 2007, Hogan 2008; cited from earlier work
TRHR2 = target: T4, TRHR2 (Rattus norvegicus, UniProt A6IZR3); conditions: Scalabrino 2007, Hogan 2008; cited from earlier work
T4 construct: host or cells: CHO cells expressing TRHR2
T4 sequence (A6IZR3 1-352): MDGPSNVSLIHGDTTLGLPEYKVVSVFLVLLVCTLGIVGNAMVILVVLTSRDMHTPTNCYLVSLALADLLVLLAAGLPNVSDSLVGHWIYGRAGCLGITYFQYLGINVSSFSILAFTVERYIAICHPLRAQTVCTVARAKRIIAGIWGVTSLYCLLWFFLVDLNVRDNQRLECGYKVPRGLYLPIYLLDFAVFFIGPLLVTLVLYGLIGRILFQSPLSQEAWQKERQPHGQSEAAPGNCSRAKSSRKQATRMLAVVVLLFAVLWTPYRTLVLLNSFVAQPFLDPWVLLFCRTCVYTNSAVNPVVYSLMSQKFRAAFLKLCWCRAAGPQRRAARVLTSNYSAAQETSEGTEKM

TRHR1 [11] = conditions: Scalabrino 2007, Hogan 2008; cited from earlier work
[12] = target: TRH receptors in human amygdala; conditions: saturable binding; prior studies; read-out: Kd of radioligand binding in human amygdala; cited from earlier work
[13] = human CNS tissue, read-out: IC50, displacement of [^3H][3-Me-His^2]TRH from CNS tissue

Row | Molecule | Ki [4] [nM] | IC50 [5] [nM] | Ki [6] [nM] | IC50 (TRHR1 [7]) [nM] | further results
1 | NC(=O)[C@@H]1CCCN1C(=O)[C@H](Cc1cnc[nH]1)NC(=O)[C@@H]1CCC(=O)N1 [TRH, Thyrotropin releasing hormone, reference compound] | – | – | – | – | IC50 ([1]; human pituitary, 5 h at 4° C., read-out: IC50, displacement of [^3H][3-Me-His^2]TRH from pituitary tissue): ~10 nM; Ki ([2]; prior studies, read-out: Ki, competition for [^3H][3-Me-His^2]TRH sites on rat brain cortical membranes): ~25 nM; IC50 [3, 13]: ~10 nM
2 | Cc1cc(=O)oc2cc(NC(=O)[C@H](Cc3c[nH]c4ccccc34)NC(=O)[C@H](Cc3ccc(O)cc3)NC(=O)[C@@H]3CCCN3C(=O)[C@H](CC(N)=O)NC(=O)[C@@H]3CCC(=O)N3)ccc12 [Glp-Asn-Pro-LTyr-LTrp-AMC] ([pGlu]NPYW-{AMC}) | 330 | > 100000 | 80 | – | –
3 | Cn1cnc(C[C@H](NC(=O)[C@@H]2CCC(=O)N2)C(=O)N2CCC[C@H]2C(N)=O)c1 [[3-Me-His2]TRH, reference compound] | 74 | 11.2 | 34 | 17.5 | –
4 | Cc1cc(=O)oc2cc(NC(=O)[C@H](Cc3c[nH]c4ccccc34)NC(=O)[C@H](Cc3c[nH]c4ccccc34)NC(=O)[C@H](Cc3ccc(O)cc3)NC(=O)[C@@H]3CCCN3C(=O)[C@H](CC(N)=O)NC(=O)[C@@H]3CCC(=O)N3)ccc12 [Glp-Asn-Pro-LTyr-LTrp-LTrp-AMC] ([pGlu]NPYWW-{AMC}) | – | > 100000 | 8.8 | – | –
5 | Cc1cc(=O)oc2cc(NC(=O)[C@@H](Cc3c[nH]c4ccccc34)NC(=O)[C@@H](Cc3ccc(O)cc3)NC(=O)[C@@H]3CCCN3C(=O)[C@H](CC(N)=O)NC(=O)[C@@H]3CCC(=O)N3)ccc12 [Glp-Asn-Pro-DTyr-DTrp-AMC] ([pGlu]NP[dY][dW]-{AMC}) | 1.7 | > 100000 | 22 | – | –
6 | NC(=O)C[C@H](NC(=O)[C@@H]1CCC(=O)N1)C(=O)N1CCC[C@H]1C(=O)N[C@@H](Cc1ccc(O)cc1)C(=O)N[C@@H](Cc1c[nH]c2ccccc12)C(N)=O [Glp-Asn-Pro-LTyr-LTrp-NH2] ([pGlu]NPYW-NH2) | 110 | > 100000 | 120 | > 100000 | –
7 | Cc1cc(=O)oc2cc(NC(=O)[C@@H](Cc3c[nH]c4ccccc34)NC(=O)[C@@H](Cc3c[nH]c4ccccc34)NC(=O)[C@@H](Cc3ccc(O)cc3)NC(=O)[C@@H]3CCCN3C(=O)[C@H](CC(N)=O)NC(=O)[C@@H]3CCC(=O)N3)ccc12 [Glp-Asn-Pro-DTyr-DTrp-DTrp-AMC] ([pGlu]NP[dY][dW][dW]-{AMC}) | 25 | > 100000 | 30 | – | –
8 | NC(=O)C[C@H](NC(=O)[C@@H]1CCC(=O)N1)C(=O)N1CCC[C@H]1C(=O)N[C@H](Cc1ccc(O)cc1)C(=O)N[C@H](Cc1c[nH]c2ccccc12)C(N)=O [Glp-Asn-Pro-D-Tyr-D-TrpNH2] ([pGlu]NP[dY][dW]-NH2) | 6.8 | > 100000 | 11 | > 100000 | affinity for [^3H][3-Me-His^2]TRH-labelled native TRH receptors, rat hippocampal tissue homogenate (in words) [8]: high affinity; displacement of [^3H][3-Me-His^2]TRH binding from native rat pituitary tissue (in words) ([9]; Scalabrino 2007, Hogan 2008): does not displace; displacement of [^3H][3-Me-His^2]TRH binding from GH4 membranes (in words) [10]: does not displace; displacement of [^3H][3-Me-His^2]TRH binding from CHO-TRHR2 membranes (in words) (TRHR2): does not displace; binding to TRH receptors in human pituitary (in words) ([1]; human pituitary): not pituitary; displacement of [^3H][3-Me-His^2]TRH binding from human pituitary (in words) ([1]; human pituitary membranes): does not displace; also recorded: did not displace; affinity for [^3H][3-Me-His^2]TRH-labelled native TRH receptors, rat cortical tissue homogenate (in words) ([2]; Scalabrino 2007, Hogan 2008): high affinity; displacement of [^3H][3-Me-His^2]TRH binding from CHO-TRHR1 membranes (in words) (TRHR1 [11]): does not displace; displacement of [^3H][3-Me-His^2]TRH binding from human CNS tissue (in words) ([3]; human CNS tissue): found to displace; IC50 [3, 13]: ~100 nM; binding to TRH receptors in human brain and spinal cord (in words) ([3]; human brain and spinal cord): binds; IC50 ([3]; human hippocampal membranes, read-out: IC50, displacement of [^3H][3-Me-His^2]TRH from hippocampal membranes): ~10 nM
9 | [^3H][3-Me-His^2]TRH | – | – | – | – | Kd ([9]; single population of high-affinity sites, prior studies, read-out: Kd of radioligand binding, rat pituitary tissue): 2.2 nM; Kd [12]: 7 to 10 nM; Kd ([2]; single population of high affinity sites, prior studies, read-out: Kd of radioligand binding, rat brain cortical membranes): ~5 nM
